Reference: patent publication US8163750B2, “Fluorene derivatives, compositions containing the same and use thereof as inhibitors of the protein chaperone HSP 90” (Sanofi-Aventis, priority 2006, dated 2012)

Assays:
Hsp82 = Hsp82 (Saccharomyces cerevisiae, UniProt P02829); test: Hsp82 ATPase activity, pyruvate kinase/lactate dehydrogenase enzymatic coupling system; type: biochemical; conditions: PK/LDH coupled kinetic method, NADH absorbance 340 nm, 1 μM Hsp82, 250 μM ATP, 37° C.
Source text: The formation of ADP due to the ATPase activity of Hsp82 was utilized for developing another method of evaluating the enzymatic activity of this enzyme by the application of an enzymatic coupling system involving pyruvate kinase (PK) and lactate dehydrogenase (LDH). In this spectrophotometric method of the kinetic type, PK catalyses the formation of ATP and pyruvate from phosphoenol-pyruvate (PEP) and ADP produced by HSP82. The pyruvate formed, a substrate of LDH, is then converted to lactate in the presence of NADH. In this case, the decrease in the concentration of NADH, measured from the decrease in absorbance at a wavelength of 340 nm, is proportional to the concentration of ADP produced by HSP82. The test products are incubated in a reaction volume of 100 μl of buffer composed of 100 mM Hepes-NaOH (pH 7.5), 5 mM MgCl2, 1 mM DTT, 150 mM KCl, 0.3 mM NADH, 2.5 mM PEP and 250 μM ATP. This mixture is preincubated at 37° C. for 30 min before adding 3.77 units of LDH and 3.77 units of PK. The reaction is initiated by adding the product to be evaluated, at various concentrations, and Hsp82, at a concentration of 1 μM. Measurement of the enzymatic activity of Hsp82 is then performed continuously in a microplate reader, at 37° C., at a wavelength of 340 nm. The initial rate of the reaction is found by measuring the gradient of the tangent at the origin of the curve that is recorded. The enzymatic activity is expressed in μM of ADP formed per minute. The effect of the various products tested is expressed as percentage inhibition of ATPase activity according to the following code: • A: IC50<1 μM • B: 1 μM<IC50<10 μM • C: 10 μM<IC50<100 μM

Hsp82, sequence (P02829 whole entry): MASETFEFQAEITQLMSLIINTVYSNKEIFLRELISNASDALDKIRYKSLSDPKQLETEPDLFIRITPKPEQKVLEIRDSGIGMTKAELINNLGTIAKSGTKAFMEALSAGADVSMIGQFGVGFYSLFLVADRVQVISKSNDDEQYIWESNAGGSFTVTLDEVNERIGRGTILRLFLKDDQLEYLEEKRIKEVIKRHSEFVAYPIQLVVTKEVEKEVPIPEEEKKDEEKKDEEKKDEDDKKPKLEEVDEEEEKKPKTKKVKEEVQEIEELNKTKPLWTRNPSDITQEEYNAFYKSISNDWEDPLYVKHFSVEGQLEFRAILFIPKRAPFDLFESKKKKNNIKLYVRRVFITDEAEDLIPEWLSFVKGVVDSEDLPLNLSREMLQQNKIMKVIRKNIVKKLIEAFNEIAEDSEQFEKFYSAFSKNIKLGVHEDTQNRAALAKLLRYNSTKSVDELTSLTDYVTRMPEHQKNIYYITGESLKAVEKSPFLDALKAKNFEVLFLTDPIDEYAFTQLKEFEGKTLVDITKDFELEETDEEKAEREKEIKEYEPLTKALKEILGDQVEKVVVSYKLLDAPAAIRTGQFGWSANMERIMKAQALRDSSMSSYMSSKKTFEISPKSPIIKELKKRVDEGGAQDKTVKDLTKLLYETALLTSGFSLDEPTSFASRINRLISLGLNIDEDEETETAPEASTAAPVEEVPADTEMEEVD

O=C(NC1c2ccccc2-c2c(-c3cc4ccccc4o3)cccc21)c1ccnc2[nH]ccc12 (racemic) [Example 2, [4-(benzofuran-2-yl)-9H-fluoren-9(R,S)-yl)]-amide of 1H-pyrrolo[2,3-b]pyridine-4-carboxylic acid]
melting point: > 260 °C
IC50 (Hsp82): 1000 to 10000 nM

O=C(NC1c2ccccc2-c2c(-c3cnc4ccccc4c3)cccc21)c1c(Br)cnc2[nH]cnc12 (single isomer, unassigned) [Example 21]
IC50 (Hsp82): < 1000 nM

O=C(NC1c2ccccc2-c2c(-c3cnc4ccccc4n3)cccc21)c1ccnc2[nH]ccc12 (racemic) [Example 12, [4-(quinoxalin-2-yl)-9H-fluoren-9(R,S)-yl]-amide of 1H-pyrrolo[2,3-b]pyridine-4-carboxylic acid]
IC50 (Hsp82): 1000 to 10000 nM

O=C(NC1c2ccccc2-c2c(-c3cnc4ccccc4c3)cccc21)c1ncnc2[nH]ccc12 (racemic) [Example 11, [4-(quinolin-3-yl)-9H-fluoren-9(R,S)-yl]-amide of 7H-pyrrolo[2,3-c]pyrimidine-4-carboxylic acid]
IC50 (Hsp82): < 1000 nM

O=C(NC1c2ccccc2-c2c(C(=O)n3ncc4ccccc43)cccc21)c1ccnc2[nH]ccc12 (racemic) [Example 16, [4-(indazole-1-carbonyl)-9H-fluoren-9(R,S)-yl]-amide of 1H-pyrrolo[2,3-b]pyridine-4-carboxylic acid]
melting point: 220 °C
IC50 (Hsp82): 1000 to 10000 nM

O=C(NC1c2ccccc2-c2c(-c3cc4ccccc4[nH]3)cccc21)c1ccnc2[nH]ccc12 (racemic) [Example 5, [4-(1H-indol-2-yl)-9H-fluoren-9-(R,S)-yl]-amide of 1H-pyrrolo[2,3-b]pyridine-4-carboxylic acid]
IC50 (Hsp82): < 1000 nM

O=C(NC1c2ccccc2-c2c(-c3cnc4c(c3)CCCN4)cccc21)c1ccnc2[nH]ccc12 (racemic) [Example 18, [4-(5,6,7,8-tetrahydro-1,8-naphthyridin-3-yl)-9H-fluoren-9(R,S)-yl]-amide of 1H-pyrrolo[2,3-b]pyridine-4-carboxylic acid]
IC50 (Hsp82): 1000 to 10000 nM

O=C(NC1c2ccccc2-c2c(-c3cnc4ccccc4c3)cccc21)c1c(Br)cnc2[nH]cnc12 (racemic) [Example 13, [4-(quinolin-3-yl)-9H-fluoren-9(R,S)-yl]-amide of 6-bromo-3H-imidazo[4,5-b]pyridine-7-carboxylic acid]
IC50 (Hsp82): < 1000 nM

O=C(NC1c2ccccc2-c2c(-c3cn4ccccc4n3)cccc21)c1ccnc2[nH]ccc12 (racemic) [Example 19, 4-{imidazo[1,2-a]pyridin-2-yl}-9H-fluoren-9-(R,S)-yl-amide of 1H-pyrrolo[2,3-b]pyridine-4-carboxylic acid]
melting point: 270 °C
IC50 (Hsp82): < 1000 nM

O=C(NC1c2ccccc2-c2c(-c3cncnc3)cccc21)c1ccnc2[nH]ccc12 (racemic) [Example 7, [4-(pyrimidin-5-yl)-9H-fluoren-9-(R,S)yl]-amide of 1H-pyrrolo[2,3-b]pyridine-4-carboxylic acid]
melting point: > 260 °C
IC50 (Hsp82): < 1000 nM

O=C(NC1c2ccccc2-c2c(-c3cnc4[nH]ccc4c3)cccc21)c1ccnc2[nH]ccc12 (racemic) [Example 17, [4-(1H-pyrrolo[2,3-b]pyridin-5-yl)-9H-fluoren-9(R,S)-yl]-amide of 1H-pyrrolo[2,3-b]pyridine-4-carboxylic acid]
IC50 (Hsp82): < 1000 nM

O=C(NC1c2ccccc2-c2c(-c3cnc4ccccc4c3)cccc21)c1ccnc2[nH]ccc12 (racemic) [Example 3, [4-(quinolin-3-yl)-9H-fluoren-9(R,S)-yl)]-amide of 1H-pyrrolo[2,3-b]pyridine-4-carboxylic acid]
melting point: > 260 °C
IC50 (Hsp82): 1000 to 10000 nM

O=C(NC1c2ccccc2-c2c(-c3nc4ccccn4n3)cccc21)c1ccnc2[nH]ccc12 (racemic) [Example 9, (4-[1.2.4]triazolo[1,5-a]pyridin-2-yl-9H-fluoren-9(R,S)-yl)-amide of 1H-pyrrolo[2,3-b]pyridine-4-carboxylic acid]
IC50 (Hsp82): 1000 to 10000 nM

O=C(NC1c2ccccc2-c2c(C3=Nc4ccccc4OC3)cccc21)c1ccnc2[nH]ccc12 (racemic) [Example 10, [4-(1,4-benzoxazin-2H-3-yl)-9H-fluoren-9(R,S)-yl]-amide of 1H-pyrrolo[2,3-b]pyridine-4-carboxylic acid]
IC50 (Hsp82): 1000 to 10000 nM

O=C(NC1c2ccccc2-c2c(-c3ccc(N4CCOCC4)nc3)cccc21)c1ccnc2[nH]ccc12 (racemic) [Example 14, [4-(2-morpholino-pyridin-5-yl)-9H-fluoren-9(R,S)-yl]-amide of 1H-pyrrolo[2,3-b]pyridine-4-carboxylic acid]
IC50 (Hsp82): 1000 to 10000 nM

O=C(NC1c2ccccc2-c2c(-c3nc4ccccc4o3)cccc21)c1ccnc2[nH]ccc12 (racemic) [Example 6, [4-(benzoxazol-2-yl)-9H-fluoren-9-(R,S)-yl]-amide of 1H-pyrrolo[2,3-b]pyridine-4-carboxylic acid]
melting point: > 260 °C
IC50 (Hsp82): < 1000 nM

O=C(NC1c2ccccc2-c2c(-c3ccc(F)nc3)cccc21)c1ccnc2[nH]ccc12 (racemic) [Example 4, [4-(6-fluoro-pyridin-3-yl)-9H-fluoren-9-(R,S)-yl]-amide of 1H-pyrrolo[2,3-b]pyridine-4-carboxylic acid]
melting point: > 260 °C
IC50 (Hsp82): 1000 to 10000 nM

Nc1ncc(Cl)c(C(=O)NC2c3ccccc3-c3c(-c4cnc5ccccc5c4)cccc32)n1 (racemic) [Example 15, [4-(quinolin-3-yl)-9H-fluoren-9(R,S)-yl]-amide of 2-amino-5-chloro-pyrimidine-4-carboxylic acid]
IC50 (Hsp82): < 1000 nM

O=C(NC1c2ccccc2-c2c(-c3ccc4ccccc4n3)cccc21)c1ccnc2[nH]ccc12 (racemic) [Example 8, [4-(quinolin-2-yl)-9H-fluoren-9-(R,S)-yl]-amide of 1H-pyrrolo[2,3-b]pyridine-4-carboxylic acid]
melting point: 260 °C
IC50 (Hsp82): 1000 to 10000 nM

O=C(NC1c2ccccc2-c2c(-c3cnc4ccccc4c3)cccc21)c1c(Br)cnc2[nH]cnc12 (single isomer, unassigned) [Example 20]
IC50 (Hsp82): 10000 to 100000 nM

Nc1ncc(Cl)c(C(=O)NC2c3ccccc3-c3c(-c4ncc[nH]4)cccc32)n1 (racemic) [Example 1, [4-(1H-imidazol-2-yl)-9H-fluoren-9(R,S)-yl]-amide of 2-amino-5-chloro-pyrimidine-4-carboxylic acid]
IC50 (Hsp82): 1000 to 10000 nM
